Measured values as given in patent US20120220455A1, “Azolylmethyloxiranes, Their Use for Controlling Phytopathogenic Fungi and Compositions Comprising Them” (BASF SE, priority 2006, published 2012).

Test system: Alternaria solani
Experiment: Efficacy against early blight of tomato caused by Alternaria solani (Alteso P1), greenhouse
Assay type: in vivo
Settings: Comparative Example 1, potted tomato plants, visual rating after 5 days
Experimental: The active compounds were prepared separately or jointly as a stock solution comprising 25 mg of active compound which was made up to 10 ml using a mixture of acetone and/or DMSO and the emulsifier Wettol EM 31 (wetting agent having emulsifying and dispersing action based on ethoxylated alkylphenols) in a volume ratio of solvent/emulsifier of 99:1. The mixture was then made up to 100 ml with water. This stock solution was diluted with the solvent/emulsifier/water mixture described to give the concentration of active compounds stated below. Leaves of potted tomato plants were sprayed to runoff point with an aqueous suspension having the active compound concentration stated below. The next day, the leaves were inoculated with an aqueous spore suspension of Alternaria solani in a 2% biomalt solution. The plants were then placed in a water vapor-saturated chamber at temperatures between 20 and 22° C. After 5 days, the disease on the untreated but infected control plants had developed to such an extent that the infection could be determined visually in %. […]

SMILES	Infection in % at 63 ppm for Alteso P1
COc1ccc([C@@]2(Cn3cncn3)O[C@@H]2c2ccccc2Cl)c(F)c1 (racemic) [Compound 14.10]	5%
COc1ccc(C2(Cn3cncn3)OC2c2ccccc2Cl)cc1 (centres unmarked) [As described in EP-A 0 196 038]	90%
